# Patent US20210330611A1, “THERAPY FOR NEUROLOGICAL DISEASES/DISORDERS” (priority 2020, published 2021)
# pIC50: −log10 of the molar value. Counter-ions that a name gives are not always drawn. Like-named read-outs stand apart in the source and are kept apart here.
# Tests used:
# Assay type in all cases: cell-based, rat
# [1] = tested on: fibrin-induced microglia activation; test: Image-based assay of fibrin-induced microglia activation (HTS and dose response); conditions: for inhibition at 10 µM: read-out: Fibrin % inhibition
# [2] = tested on: LPS-induced microglia activation; test: Image-based assay of LPS-induced microglia activation (HTS and dose response); conditions: for inhibition at 10 µM: read-out: LPS % inhibition
# [3] = tested on: fibrin- and LPS-induced microglia activation; test: cells
# [4] = Rattus norvegicus, Microglia, primary microglia HTS, fibrin stimulation, compounds at 10 μM
# [5] = Rattus norvegicus, Microglia, primary microglia HTS, LPS stimulation, compounds at 10 μM
# [6] = quadrant by fibrin and LPS inhibition, HTS at 10 μM
# [7] = Rattus norvegicus, Microglia, primary microglia HTS, fibrin stimulation, increased cell size (>800 μm^2) as marker of activation
# [8] = Rattus norvegicus, Microglia, 48 h, primary microglia HTS, LPS stimulation, increased cell size (>800 μm^2) as marker of activation
# [9] = quadrant by fibrin and LPS inhibition in HTS of 1907 compounds
# [10] = classification by fibrin and LPS inhibition, HTS at 10 μM
# [11] = Rattus norvegicus, Microglia, Table 7, read-out: fib_IC50
# [12] = Rattus norvegicus, Microglia, Table 7, read-out: LPS_IC50
# [13] = Table 7, fib = fibrin, LPS, tox = toxicity
# [14] = primary microglia HTS, fibrin stimulation, compounds at 10 μM
# [15] = primary microglia HTS, LPS stimulation, compounds at 10 μM
# [16] = Rattus norvegicus, Microglia, 48 h
structure (smiles),measurement,setting,value
CNCC[C@@H](Oc1ccccc1C)c1ccccc1 [Atomoxetine Hydrochloride],inhibition at 10 µM,[1]; [4],15%
same,inhibition at 10 µM,[2]; [5],7%
same,Quadrant (FIG. 5b),[3]; [6],Q4
CCCCC(C)(O)C/C=C/[C@H]1[C@H](O)CC(=O)[C@@H]1CCCCCCC(=O)OC (mixture of isomers) [Misoprostol],inhibition at 10 µM,[1]; [7],13%
same,inhibition at 10 µM,[2]; [8],32%
same,Quadrant (FIG. 5b),[3]; [9],Q4
CN1CCc2cccc3c2[C@H]1Cc1ccc(O)c(O)c1-3 [Apomorphine Hydrochloride],inhibition at 10 µM,"[1]; Rattus norvegicus, Microglia",11%
same,inhibition at 10 µM,"[2]; Rattus norvegicus, Microglia",-4%
same,Quadrant (FIG. 5b),[3],Q4
O=C(O)Cc1ccccc1Nc1c(Cl)cccc1Cl [Diclofenac],inhibition at 10 µM,[1]; [4],-27%
same,inhibition at 10 µM,[2]; [5],12%
same,Quadrant (FIG. 5b),[3]; [10],Q4
C/C=C/c1ccc(OC)cc1 [Anethole],inhibition at 10 µM,[1]; [4],-37%
same,inhibition at 10 µM,[2]; [5],13%
same,Quadrant (FIG. 5b),[3]; [6],Q4
"COCc1c(C(C)C)nc(C(C)C)c(/C=C/[C@@H](O)C[C@@H](O)CC(=O)O)c1-c1ccc(F)cc1 [Cerivastatin, Cerivastatin Na]",Fibrin % inhibition,[1],103%
same,LPS % inhibition,[2],101%
same,Quadrant (FIG. 5b),[3],Q2
CC(C)[N+]1(C)[C@@H]2CC[C@H]1CC(OC(=O)C(CO)c1ccccc1)C2.[Br-] (stereo partly drawn) [Ipratropium Bromide],Fibrin % inhibition,[1],6%
same,LPS % inhibition,[2],8%
same,Quadrant (FIG. 5b),[3],Q4
CO[C@@H]1C[C@@H](C[C@H]2CC[C@H](C)[C@H]([C@@H](C)C(=O)O)O2)O[C@]2(O[C@](C)([C@H]3CC[C@@](C)([C@@H]4O[C@@H]([C@H]5O[C@@](O)(CO)[C@H](C)C[C@@H]5C)C[C@@H]4C)O3)C[C@H]2C)[C@@H]1C [nigericin sodium],pIC50,[1]; [11],6.69
same,pIC50,[2]; [12],7.19
same,Activity,[3]; [13],fib/LPS
CC(=O)Oc1c(C)c(C)c2c(c1C)CCC(C)(CCCC(C)CCCC(C)CCCC(C)C)O2 (stereo not drawn) [Alpha-tochopheryl Acetate],Fibrin % inhibition,[1]; [14],22%
same,LPS % inhibition,[2]; [15],8%
same,Quadrant (FIG. 5b),[3]; [6],Q4
C[C@]12CC[C@H]3[C@@H](CCC4=CC(=O)CC[C@@]43C)[C@@H]1CC[C@@H]2O [Testosterone],inhibition at 10 µM,"[1]; Rattus norvegicus, Microglia",-1%
same,inhibition at 10 µM,"[2]; Rattus norvegicus, Microglia",5%
same,Quadrant (FIG. 5b),[3],Q4
"CC(=O)OCC(=O)[C@@]12OC(C)(C)O[C@@H]1C[C@H]1[C@@H]3C[C@H](F)C4=CC(=O)C=C[C@]4(C)[C@@]3(F)[C@@H](O)C[C@@]12C [Fluocinonide, reference compound]",inhibition at 10 µM,"[1]; Rattus norvegicus, Microglia",112%
same,IC50,"[1]; Rattus norvegicus, Microglia, read-out: fib_IC50 (uM)",0.002 µM
same,inhibition at 10 µM,[2]; [16],106%
same,IC50,"[2]; Rattus norvegicus, Microglia, read-out: LPS_IC50 (uM)",0.002 µM
same,Activity,[3],fib/LPS
same,Quadrant (FIG. 5b),[3],Q2
COc1cc([C@@H]2c3cc4c(c(O)c3C[C@H]3COC(=O)[C@@H]32)OCO4)cc(OC)c1OC [beta-peltatin],fib_HS,"[1]; Hill slope of fibrin dose response, Table 7",−2.10
same,fib specificity,[1]; Table 7,0.5
same,pIC50,"[1]; Table 7, read-out: fib_IC50",6.30
same,LPS_HS,"[2]; Hill slope of LPS dose response, Table 7",−1.50
same,LPS specificity,[2]; Table 7,2.0
same,pIC50,"[2]; Table 7, read-out: LPS_IC50",6.60
same,Activity,[3]; [13],fib/LPS
CCN1C(=O)NC(c2ccccc2)C1=O (stereo not drawn) [Ethotoin],inhibition at 10 µM,[1]; [4],-36%
same,inhibition at 10 µM,[2]; [5],12%
same,Quadrant (FIG. 5b),[3]; [10],Q4
C[N+]1(C)CCC(OC(=O)C(O)(c2ccccc2)C2CCCC2)C1 (stereo not drawn) [Glycopyrrolate],inhibition at 10 µM,"[1]; Rattus norvegicus, Microglia",-33%
same,inhibition at 10 µM,[2]; [16],3%
same,Quadrant (FIG. 5b),[3],Q4
NCCCC[C@H](N[C@@H](CCc1ccccc1)C(=O)O)C(=O)N1CCC[C@H]1C(=O)O [Lisinopril],inhibition at 10 µM,"[1]; Rattus norvegicus, Microglia",1%
same,inhibition at 10 µM,[2]; [16],3%
same,Quadrant (FIG. 5b),[3],Q4
O.OC[C@H]1O[C@@H](O[C@H]2[C@H](O)[C@@H](O)C(O)O[C@@H]2CO)[C@H](O)[C@@H](O)[C@H]1O (stereo partly drawn) [Lactose Monohydrate],inhibition at 10 µM,"[1]; Rattus norvegicus, Microglia, primary microglia HTS, fibrin stimulation, activation = cell size >800 μm2",-22%
same,inhibition at 10 µM,"[2]; Rattus norvegicus, Microglia, 48 h, primary microglia HTS, LPS stimulation, activation = cell size >800 μm2",9%
same,Quadrant (FIG. 5b),[3]; [9],Q4
C#C[C@]1(O)CC[C@H]2[C@@H]3CCC4=C(CCC(=O)C4)[C@H]3CC[C@@]21C [Norethynodrel],inhibition at 10 µM,"[1]; Rattus norvegicus, Microglia",1%
same,inhibition at 10 µM,[2]; [16],10%
same,Quadrant (FIG. 5b),[3],Q4
C[C@]12CCC(=O)C=C1CC[C@@H]1[C@@H]2C(=O)C[C@@]2(C)[C@H]1CC[C@]2(O)C(=O)CO [Cortisone],Fibrin % inhibition,"[1]; primary HTS, 10 μM, fibrin-stimulated primary microglia",37%
same,LPS % inhibition,"[2]; primary HTS, 10 μM, LPS-stimulated primary microglia",44%
same,Quadrant (FIG. 5b),"[3]; primary HTS, 10 μM",Q4
"C[C@]12C=CC(=O)C=C1CC[C@@H]1[C@@H]2[C@@H](O)C[C@@]2(C)[C@H]1CC[C@]2(O)C(=O)CO [Prednisolone, reference compound]",pIC50,[1]; [11],8.70
same,inhibition at 10 µM,[1]; [4],97%
same,inhibition at 10 µM,[1]; [7],114%
same,inhibition at 10 µM,[2]; [8],100%
same,pIC50,[2]; [12],8.70
same,inhibition at 10 µM,[2]; [5],87%
same,Quadrant (FIG. 5b),"[3]; Table 2, screen at 10 μM",Q2
same,Activity,[3]; [13],fib/LPS
same,Quadrant (FIG. 5b),[3]; [9],Q2
same,Quadrant (FIG. 5b),[3]; [6],Q2
CCC1=C[C@@H]2CN(C1)Cc1c([nH]c3ccccc13)[C@@](C(=O)OC)(c1cc3c(cc1OC)N(C)[C@H]1[C@@](O)(C(=O)OC)[C@H](OC(C)=O)[C@]4(CC)C=CCN5CC[C@]31[C@@H]54)C2 [Vinorelbine],inhibition at 10 µM,"[1]; Rattus norvegicus, Microglia, primary microglia HTS, 10 μM, fibrin-stimulated, cell size >800 μm^2 as marker of activation",-12%
same,inhibition at 10 µM,[1]; [4],108%
same,inhibition at 10 µM,"[2]; Rattus norvegicus, Microglia, primary microglia HTS, 10 μM, LPS-stimulated, cell size >800 μm^2 as marker of activation",-11%
same,inhibition at 10 µM,[2]; [5],106%
same,Quadrant (FIG. 5b),"[3]; HTS of 1907 compounds, quadrant by fibrin and LPS inhibition",Q4
same,Quadrant (FIG. 5b),[3]; [6],Q2
CN1C(=O)CN=C(c2ccccc2)c2cc(Cl)ccc21 [Diazepam],inhibition at 10 µM,"[1]; Rattus norvegicus, Microglia",-19%
same,inhibition at 10 µM,"[2]; Rattus norvegicus, Microglia",5%
same,Quadrant (FIG. 5b),[3],Q4
Cc1cc(C(C)(C)C)c(O)c(C(C)(C)C)c1,Fibrin % inhibition,[1]; [14],−4%
same,LPS % inhibition,[2]; [15],5%
same,Quadrant (FIG. 5b),[3]; [6],Q4
CN1CCN2c3ccccc3Cc3ccccc3C2C1 (stereo not drawn) [Mianserin],inhibition at 10 µM,"[1]; Rattus norvegicus, Microglia",-18%
same,inhibition at 10 µM,[2]; [16],17%
same,Quadrant (FIG. 5b),[3],Q4
"O=c1c(-c2ccccc2)coc2cc(O)cc(O)c12 [5,7-dihydroxyisoflavone]",pIC50,[1]; [11],6.76
same,pIC50,[2]; [12],7.68
same,Activity,[3]; [13],fib/LPS
O=C(O)COC(=O)Cc1ccccc1Nc1c(Cl)cccc1Cl [Aceclofenac],inhibition at 10 µM,[1]; [4],-2%
same,inhibition at 10 µM,[2]; [5],8%
same,Quadrant (FIG. 5b),[3]; [6],Q4
CC(C)CCCCCOC(=O)COc1ccc(Cl)cc1Cl,pIC50,[1]; [11],6.04
same,pIC50,[2]; [12],6.00
same,Activity,[3]; [13],fib/LPS
O=C1OCCN1/N=C/c1ccc([N+](=O)[O-])o1 [Furazolidone],inhibition at 10 µM,"[1]; Rattus norvegicus, Microglia",3%
same,inhibition at 10 µM,[2]; [16],8%
same,Quadrant (FIG. 5b),[3],Q4
CC1=C(/C=C/C(C)=C/C=C/C(C)=C/C=C/C=C(C)/C=C/C=C(C)/C=C/C2=C(C)CCCC2(C)C)C(C)(C)CCC1 [Beta-carotene],inhibition at 10 µM,"[1]; Rattus norvegicus, Microglia",-15%
same,inhibition at 10 µM,"[2]; Rattus norvegicus, Microglia",-3%
same,Quadrant (FIG. 5b),[3],Q4
C[C@]12CC[C@@H]3c4ccc(O)cc4CC[C@H]3[C@@H]1C[C@@H](O)[C@@H]2O [Estriol],inhibition at 10 µM,"[1]; Rattus norvegicus, Microglia",-17%
same,LPS % inhibition,[2]; 10 µM,16%
same,inhibition at 10 µM,"[2]; Rattus norvegicus, Microglia",8%
same,Quadrant (FIG. 5b),[3],Q4
"CN1CCc2cccc3c2[C@H]1Cc1ccc(O)c(O)c1-3.Cl [R(−)-Apomorphine hydrochloride, reference compound]",Fibrin % inhibition,[1],63%
same,pIC50,"[1]; Table 1, dose response 0.001-20 μM, triplicates, primary rat microglia, 48 h, read-out: Fibrin IC50",< 4.70
same,pIC50,[1]; read-out: Fibrin IC50,< 4.70
same,IC50,[1]; read-out: Fibrin IC50 (uM) (Suppl. Table 7),> 20 µM
same,LPS % inhibition,[2],18%
same,pIC50,"[2]; Table 1, dose response 0.001-20 μM, triplicates, primary rat microglia, 48 h, read-out: LPS IC50",4.85
same,pIC50,[2]; read-out: LPS IC50,4.85
same,IC50,[2]; read-out: LPS IC50 (uM) (Suppl. Table 7),14 µM
same,Cherry-picked Hit (Suppl. Table 7),[3],HIT (key: HIT: Hits were defined as molecules that exhibited greater than 50% inhibition of either fibrin or LPS activation)
same,Hit,[3],HIT (key: HIT: Hits were defined as molecules that exhibited greater than 50% inhibition of either fibrin or LPS activation)
same,Quadrant (FIG. 5b),[3],Q3
same,Quadrant (FIG. 5b),"[3]; Table 1, screen at 10 μM",Q3
COc1ccc2cc([C@H](C)C(=O)O)ccc2c1 [Naproxen],inhibition at 10 µM,"[1]; Rattus norvegicus, Microglia",-25%
same,inhibition at 10 µM,[2]; [16],15%
same,Quadrant (FIG. 5b),[3],Q4
CN1[C@@H]2C[C@@H](OC(=O)[C@H](CO)c3ccccc3)C[C@H]1[C@@H]1O[C@@H]12 [Scopolamine Hydrobromide],Fibrin % inhibition,[1],5%
same,LPS % inhibition,[2],3%
same,Quadrant (FIG. 5b),[3],Q4
C#CC(C)(O)CC (stereo not drawn) [Meparfylon],Fibrin % inhibition,"[1]; primary microglia HTS, fibrin stimulation, increased cell size (>800 μm^2) as marker of activation",−49%
same,LPS % inhibition,"[2]; primary microglia HTS, LPS stimulation, increased cell size (>800 μm^2) as marker of activation",3%
same,Quadrant (FIG. 5b),[3]; [9],Q4
COc1ccc(C(=O)N2CCCC2=O)cc1 [Aniracetam],inhibition at 10 µM,[1]; [4],6%
same,inhibition at 10 µM,[2]; [5],4%
same,Quadrant (FIG. 5b),[3]; [6],Q4
COc1cc2c(cc1OC)C(=O)C(CC1CCN(Cc3ccccc3)CC1)C2 (stereo not drawn) [Donepezil],inhibition at 10 µM,"[1]; Rattus norvegicus, Microglia",5%
same,inhibition at 10 µM,"[2]; Rattus norvegicus, Microglia",17%
same,Quadrant (FIG. 5b),[3],Q4
